Values of other authors as cited in patent US20090162921A1 (priority 2005, published 2009).

Test system: mouse
Details: in vivo; for LD50: po

Compound | LD50 (50% of the fatal dose in mouse) [mg/kg] | LD50
arsenic acid [As(V)] | 14 to 18 | 14 to 18 mg/kg
C[As+](C)(C)CC(=O)[O-] [AB, arsenobetaine] | 10000 | 10000
